Values of other authors in the CATMoS acute toxicity set (Mansouri et al. 2021).
Where “and” joins values, the source holds several entries; their conditions need not be identical. Equal values may be shown once.

Assay: rat acute oral toxicity
Settings: in vivo
In the case of `CN(C)c1nc(N(C)C)nc(N(C)C)n1`, the LD50 is listed as 350 mg/kg. For `c1ccc(Nc2ccc3ccccc3c2)cc1`, the LD50 is given as 8730 mg/kg. For `CCCC(=O)OC(Cl)C(Cl)(Cl)Cl` (stereo not drawn), the LD50 is given as 1480 mg/kg. In the case of `O=C(CN1CCCCC1)N1CCOc2ccccc21`, the LD50 is listed as 200 mg/kg. For `CC(=O)Nc1ccc(N=NN(C)C)cc1`, the LD50 is given as 510 mg/kg. In the case of `O=[N+]([O-])c1ccc(Oc2c(Cl)cc(Cl)cc2Cl)cc1`, the LD50 is given as 10800 mg/kg. In the case of `OC[C@@H](O)[C@H]1O[C@@H]2O[C@H](C(Cl)(Cl)Cl)O[C@@H]2[C@H]1O`, the LD50 is listed as 400 mg/kg. For `NN1C(=O)CSC1=S`, the LD50 is given as 2.21 mg/kg. For `O=S(=O)(Oc1ccc(Cl)cc1Cl)c1ccccc1`, the LD50 is given as 1000 mg/kg. For `O=C(NNCS(=O)(=O)O)c1ccncc1`, the LD50 is listed as 14400 mg/kg. In the case of `O=[N+]([O-])c1ccc(C=Cc2ccc([N+](=O)[O-])cc2S(=O)(=O)O)c(S(=O)(=O)O)c1`, the LD50 is given as 12600 mg/kg. In the case of `COc1cc(S(C)=O)ccc1-c1nc2ccncc2[nH]1` (stereo not drawn), the LD50 is given as 132 mg/kg. In the case of `CN(C(=O)CF)c1cccc2ccccc12`, the LD50 is given as 67 mg/kg. In the case of `CCC1(CC)COC(=O)NC1=O`, the LD50 is listed as 71 mg/kg. For `CN1CCCN(C(c2ccccc2)c2ccc(Cl)cc2)CC1` (stereo not drawn), the LD50 is listed as 490 mg/kg. In the case of `C[Si](C)(C)OP(=O)(O[Si](C)(C)C)O[Si](C)(C)C`, the LD50 is listed as 3440 mg/kg. In the case of `COP(=O)(OC)OC=C(Br)Br`, the LD50 is listed as 253 mg/kg. In the case of `O=[N+]([O-])C(Br)(Br)CO`, the LD50 is given as 29.1 mg/kg. For `Cc1cccc(N(CCO)CCO)c1`, the LD50 is listed as 3100 mg/kg. For `C=CCc1ccc(O)c(OC)c1`, the LD50 is given as 1930 mg/kg. For `CC1NC(=O)c2ccccc2O1` (stereo not drawn), the LD50 is listed as 1020 mg/kg. For `CC(C)(N)CCCCCCCCCCOCCO`, the LD50 is given as 1850 mg/kg. For `CN(C)c1ccc(C(O)(c2ccc(N(C)C)cc2)c2ccc(N(C)C)cc2)cc1`, the LD50 is given as 770 mg/kg. For `NC(=O)CCN1CCN(C2Cc3cc(Cl)ccc3Sc3cc(F)ccc32)CC1` (stereo not drawn), the LD50 is listed as 472 mg/kg and 490 mg/kg. For `OP(OCCCl)OCCCl`, the LD50 is given as 260 mg/kg. For `CCC(CN)=C(c1ccccc1)c1ccccc1`, the LD50 is given as 148 mg/kg. For `N#C[C@H]1O[C@@H]1C#N`, the LD50 is listed as 250 mg/kg. In the case of `OCCN1CCN(CCC=C2c3ccccc3Sc3ccc(Cl)cc32)CC1`, the LD50 is listed as 660 mg/kg. In the case of `CC(C)(c1ccc(O)cc1)c1ccc(O)cc1`, the LD50 is given as 1000 mg/kg. In the case of `COc1ccc2c(c1)c(CC(=O)OCOC(=O)c1cccc(C)c1)c(C)n2C(=O)c1ccc(Cl)cc1`, the LD50 is listed as 106 mg/kg. In the case of `CCCCCCNC(=O)n1cc(F)c(=O)[nH]c1=O`, the LD50 is listed as 268 mg/kg. In the case of `C1C[C@H]2C[C@@H]1[C@H]1SSS[C@@H]21`, the LD50 is listed as 300 mg/kg. For `CC(C)=NNC(=O)CSc1cc(Oc2ccc(F)cc2)ncn1`, the LD50 is given as 380 mg/kg. For `COc1nc(C(F)(F)F)nc(=NC(O)=NS(=O)(=O)c2ccccc2C(F)(F)F)[nH]1`, the LD50 is listed as 4700 mg/kg. In the case of `O=C(O)C1CSCN1` (stereo not drawn), the LD50 is listed as 875 mg/kg. In the case of `O=[N+]([O-])c1ccc(OP(=O)(CCl)c2ccccc2)cc1` (stereo not drawn), the LD50 is given as 203 mg/kg. For `NNc1nnc(NN)c2ccccc12`, the LD50 is given as 350 mg/kg and 400 mg/kg. In the case of `O=C(NC(CCc1ccc2c(c1)OCO2)CCc1ccc2c(c1)OCO2)c1ccc(Cl)cc1`, the LD50 is given as 1800 mg/kg. For `c1ccc(N(CCN2CCCCC2)Cc2ccccn2)cc1`, the LD50 is given as 806 mg/kg and 740 mg/kg. For `CC(Cl)(C=O)CCl` (stereo not drawn), the LD50 is given as 1620 mg/kg. In the case of `CCCCCCCCCc1ccc(OCCOS(=O)(=O)O)cc1`, the LD50 is given as 10000 mg/kg. For `c1ccc2c(c1)ncc1ncsc12`, the LD50 is listed as 350 mg/kg and 290 mg/kg. In the case of `CCc1ccc(Oc2ccc(C)cc2CC(=O)O)c(Cl)c1`, the LD50 is listed as 2850 mg/kg. In the case of `CCCC(=O)OC/C=C(\C)CCC=C(C)C`, the LD50 is listed as 10700 mg/kg. In the case of `CCN(CCC#N)c1ccccc1`, the LD50 is given as 4840 mg/kg. For `CCC(O)(CC)c1[nH]ncc1Cl`, the LD50 is listed as 236 mg/kg. For `CC1CCCc2ccccc21` (stereo not drawn), the LD50 is listed as 6700 mg/kg. For `CC(=O)N(CC(C)C(=O)O)c1c(I)cc(I)c(N)c1I` (stereo not drawn), the LD50 is given as 7100 mg/kg. In the case of `CCc1cc(CC)cc(OC(=O)NC)c1`, the LD50 is listed as 1600 mg/kg. For `CN(C)N=Nc1ccc(Br)cc1`, the LD50 is listed as 423 mg/kg. For `CCN(CC)CCOCc1cc(Br)ccc1OC`, the LD50 is listed as 220 mg/kg. For `O=C1c2ccccc2-c2c([N+](=O)[O-])cc3c4cc([N+](=O)[O-])c5c6c(ccc(c7ccc1c2c73)c64)C(=O)c1ccccc1-5`, the LD50 is listed as 10000 mg/kg. For `CCN(C(C)C)C(C)C`, the LD50 is listed as 317 mg/kg. For `COC(=O)C(c1ccccc1Cl)N1CCc2sccc2C1` (stereo not drawn), the LD50 is listed as 1910 mg/kg. In the case of `Nc1ccc(O)c2c1C(=O)c1c(O)cc(-c3ccc(O)cc3)c(N)c1C2=O`, the LD50 is given as 6380 mg/kg. In the case of `CC(C)COC(=S)S`, the LD50 is listed as 1290 mg/kg. In the case of `C=CCN(CC=C)c1c(C)cc(OC(=O)NC)cc1C`, the LD50 is given as 89 mg/kg. For `CC(C)NCC(O)COC(C)c1ccccc1` (stereo not drawn), the LD50 is listed as 540 mg/kg. For `Nc1nc2cc(Br)ccc2o1`, the LD50 is listed as 1000 mg/kg. For `COc1ccc2cc(C(C)C(=O)OCCOCCO)ccc2c1` (stereo not drawn), the LD50 is listed as 638 mg/kg. For `CCCCCCCCOC(=O)/C=C\C(=O)OCCCCCCCC`, the LD50 is given as 14200 mg/kg. In the case of `CCCCCCCCCC(=O)NP(=O)(OC)SC` (stereo not drawn), the LD50 is given as 125 mg/kg. In the case of `CCCCCCCCC(CC=CCl)CCCN` (stereo not drawn), the LD50 is listed as 1320 mg/kg. In the case of `CCC(C(=O)OCCOCCN(CC)CC)c1ccccc1` (stereo not drawn), the LD50 is given as 4160 mg/kg. In the case of `C[N+](C)(C)CCCCCCCCCC[N+](C)(C)C`, the LD50 is given as 85 mg/kg. In the case of `OCCOc1ccc(Cl)cc1Cl`, the LD50 is listed as 1410 mg/kg. In the case of `CCCCC(CC)COC(=O)C(CC)CCCC` (stereo not drawn), the LD50 is listed as 27000 mg/kg. For `CC(=O)CCc1ccc(-c2ccccc2)cc1`, the LD50 is listed as 1030 mg/kg. In the case of `CCC(C)c1cc([N+](=O)[O-])cc([N+](=O)[O-])c1OC(C)=O` (stereo not drawn), the LD50 is given as 60 mg/kg. For `[SiH3]CCCCC(Cl)(Cl)Cl`, the LD50 is given as 2340 mg/kg. For `C=CCc1ccccc1OCC(O)CNC(C)C` (stereo not drawn), the LD50 is listed as 590 mg/kg. In the case of `CCOP(=S)(OCC)Oc1ccc([N+](=O)[O-])c(Cl)c1`, the LD50 is listed as 50 mg/kg. In the case of `CCOC(C1=NCCCCN1)c1ccc(Cl)cc1` (stereo not drawn), the LD50 is given as 370 mg/kg. In the case of `c1cncc(C2CCCCN2)c1` (stereo not drawn), the LD50 is listed as 210 mg/kg and 235 mg/kg. In the case of `Cn1c2c(c(=O)n1-c1ccccc1)CCCC2`, the LD50 is listed as 1500 mg/kg. For `NCCOS(N)(=O)=O`, the LD50 is given as 7460 mg/kg. For `O=C(Nc1nc2ccc([N+](=O)[O-])cc2s1)c1ccc([N+](=O)[O-])cc1`, the LD50 is listed as 1500 mg/kg. For `COc1ccc(-c2cc(N)c3c(c2O)C(=O)c2c(N)ccc(O)c2C3=O)cc1`, the LD50 is listed as 6380 mg/kg. For `CC(C)CCO`, the LD50 is listed as 1300 mg/kg. For `ClC1=C(Cl)C2(Cl)C3CCCCC3C1(Cl)C2(Cl)Cl` (stereo not drawn), the LD50 is listed as 100 mg/kg. In the case of `O=C(O)C1CCCCC1`, the LD50 is listed as 3260 mg/kg. For `CC(CC(C)(C)O)OCCC#N` (stereo not drawn), the LD50 is listed as 3200 mg/kg. For `CC(N)C1(C)CCCO1` (stereo not drawn), the LD50 is given as 130 mg/kg. In the case of `Nc1ccc(N=Nc2c(S(=O)(=O)O)cc3cc(S(=O)(=O)O)c(N=Nc4ccccc4)c(O)c3c2N)cc1`, the LD50 is given as 3000 mg/kg. In the case of `CC(C)(C)NCCCCN`, the LD50 is listed as 810 mg/kg. For `CCCOC/C(=N\c1ccc(Cl)cc1C(F)(F)F)n1ccnc1`, the LD50 is listed as 715 mg/kg. For `O=c1[nH]nc2n1-c1cc([N+](=O)[O-])cc([N+](=O)[O-])c1OC2`, the LD50 is given as 3690 mg/kg. In the case of `CC(=O)O[C@]1(C(C)=O)CC[C@H]2[C@@H]3C=C(Cl)C4=CC(=O)CC[C@]4(C)[C@H]3CC[C@@]21C`, the LD50 is given as 6400 mg/kg. For `CN(C)c1ccc(SC#N)cc1`, the LD50 is given as 500 mg/kg. In the case of `CC(=O)CCCOC(C)=O`, the LD50 is listed as 6080 mg/kg. In the case of `CC(O)COC(=O)CBr` (stereo not drawn), the LD50 is listed as 664 mg/kg. In the case of `Fc1ccc(C(c2ccc(F)cc2)N2CCN(C/C=C/c3ccccc3)CC2)cc1`, the LD50 is listed as 503 mg/kg. For `S=C1NCCS1`, the LD50 is given as 300 mg/kg. In the case of `CC(Oc1ccc(Oc2ncc(Cl)cc2Cl)cc1)C(=O)N1CCCO1` (stereo not drawn), the LD50 is given as 500 mg/kg. In the case of `CC(C)(CO)S(C)(=O)=O`, the LD50 is given as 11300 mg/kg. For `O=C(O)c1cccc(O)c1O`, the LD50 is given as 1800 mg/kg. In the case of `CCOC(=O)C1CC(=O)C(=C(O)C2CC2)C(=O)C1` (stereo not drawn), the LD50 is given as 4460 mg/kg. For `Nc1cccc(Cl)c1`, the LD50 is given as 256 mg/kg. For `COc1ccc2c(c1)c(CC(=O)OCC(=O)O)c(C)n2C(=O)c1ccc(Cl)cc1`, the LD50 is given as 24.2 mg/kg. In the case of `Cc1cccc(C)c1N/N=C(/N)N(C)C`, the LD50 is listed as 980 mg/kg. In the case of `C=CCOC(=O)c1ccc(C(=O)OCC=C)c(C(=O)OCC=C)c1`, the LD50 is listed as 2400 mg/kg. For `COc1ccc(C(=O)Nc2ccccc2CCC2CCCCN2C)cc1` (stereo not drawn), the LD50 is listed as 57 mg/kg. For `C[N+](C)(C)CCC[N+]1(C)CC2C3C=CC(CC3)C2C1` (stereo not drawn), the LD50 is listed as 1730 mg/kg.
